Source: patent publication US8138188B2, “Melanocortin type 4 receptor agonist piperidinoylpyrrolidines” (Pfizer Inc., priority 2006, dated 2012)

Key:
[1] = molecular target: T1, MC3 receptor (MC3R) (Homo sapiens, UniProt P41968); test: Nle4, D-Phe7-α-MSH inhibition at the MC3 receptor (SPA competition binding); settings: vs 0.06 nM Nle4, D-Phe7-α-MSH, CHO-CRE MC3R cell membranes
T1 construct: expressed in transfected cells; host or cells: CHO-CRE MC3R cells (membranes)
From the text: Nle4, D-Phe7-α-MSH Inhibition at the MC3 Receptor
Nle4, D-Phe7-α-MSH is a stable analogue of melanocyte-stimulating hormone (MSH), which is an agonist at the MC3 receptor (MC3R). Compounds can be evaluated for their ability to inhibit Nle4, D-Phe7-α-MSH binding to membranes from cells expressing the MC3R using a competition binding assay versus [^125I] Nle4, D-Phe7-α-MSH.
Cells expressing the MC3R were subject to homogenisation and the membrane fragment isolated by differential centrifugation. CHO-CRE MC3R cell membranes were coupled to PVT-PEI-WGA SPA Beads type A for 2 hours, spun at 1000 RPM for 5 mins and suspended to a final assay concentration of 800 ug bead/ml (1.2 ug membrane, 40 ug bead per well). Bead/membrane mix was incubated with 0.06 nM Nle4, D-Phe7-α-MSH and 11 half-log concentrations of competitor ligand, in duplicate, in a total volume of 50 μl buffer per well (25 mM HEPES, 1 mM MgCl2, 2.5 mM CaCl2, 1% Pluronic F68, 1 complete EDTA protease inhibitor tablet/50 ml pH7).
Non-specific binding was determined by the inclusion of 100 nM SHU9119. The reaction was initiated by the addition of bead/membranes and plates were incubated at room temperature for 12 hours (the first hour on a plate shaker), after which the amount of radioactivity present was determined using a Wallac plate counter. Ki values were determined by data analysis using appropriate software.

[2] = molecular target: T2, MC4 receptor (MC4R) (Homo sapiens, UniProt P32245); test: AGRP inhibition: competition binding vs [125I]AGRP(87-132) at CHO-CRE MC4R cell membranes; settings: vs 0.3 nM [125I]AGRP(87-132)
T2 construct: expressed in transfected cells; host or cells: CHO-CRE MC4R cells (membranes)
From the text: Agouti related protein (AGRP) is a high affinity endogenous antagonist/inverse agonist for the MC4 receptor (Lu et al., 1994, Nature 371: 799-802; Oilman et al., 1997, Science 278: 135-138). […] It has been ascertained that this C-terminal fragment of AGRP contains the MC4R binding determinants (Yang et al., 1999, Mol Endocrinol 13: 148-155), therefore, compounds can be evaluated for their ability to inhibit AGRP binding to membranes from cells expressing the MC4R using a competition binding assay versus [^125I]AGRP(87-132). To this end cells expressing the MC4R were subject to homogenisation and the membrane fragment isolated by differential centrifugation. CHO-CRE MC4R cell membranes (12 μg protein) were incubated with 0.3 nM [^125I]AGRP(87-132) and 11 half-log concentrations of competitor ligand, in duplicate, in a total volume of 100 μl buffer (25 mM HEPES, 1 mM MgCl2, 2.5 mM CaCl2, 0.5% BSA pH 7.0). Non-specific binding was determined by the inclusion of 1 μM SHU9119. The reaction was initiated by the addition of membranes and plates were incubated at room temperature for 2 hours. The reaction was terminated by rapid filtration onto GF/C filters (presoaked in 1% PEI) using a vacuum harvester followed by five 200 μl washes of ice cold wash buffer (Binding buffer containing 500 mM NaCl). The filters were soaked in 50 μl scintillation fluid and the amount of radioactivity present was determined by liquid scintillation counting. Ki values were determined by data analysis using appropriate software.

[3] = molecular target: T2, MC4 receptor (MC4R); test: Nle4, D-Phe7-α-MSH inhibition at the MC4 receptor (SPA competition binding vs [125I] Nle4, D-Phe7-α-MSH); settings: vs 0.06 nM [125I] Nle4, D-Phe7-α-MSH, CHO-CRE MC4R cell membranes
From the text: Nle4, D-Phe7-α-MSH Inhibition at the MC4 Receptor
Nle4, Nle4, D-Phe7-α-MSH is a stable analogue of melanocyte-stimulating hormone (MSH), which is an agonist at the MC4 receptor (MC4R). Compounds can be evaluated for their ability to inhibit Nle4, Nle4, D-Phe7-α-MSH binding to membranes from cells expressing the MC4R using a competition binding assay versus [^125I] Nle4, D-Phe7-α-MSH.
Cells expressing the MC4R were subject to homogenisation and the membrane fragment isolated by differential centrifugation. CHO-CRE MC4R cell membranes were coupled to PVT-PEI-WGA SPA Beads type A for 2 hours, spun at 1000 RPM for 5 mins and suspended to a concentration of 300 ug bead/ml (0.15 ug membrane, 15 ug bead per well). Bead/membrane mix was incubated with 0.06 nM [^125I] Nle4, D-Phe7-α-MSH and 11 half-log concentrations of competitor ligand, in duplicate, in a total volume of 50 μl buffer per well (25 mM HEPES, 1 mM MgCl2, 2.5 mM CaCl2, 1% Pluronic F68, 1 complete EDTA protease inhibitor tablet/50 ml pH7). Non-specific binding was determined by the inclusion of 100 nM SHU9119. The reaction was initiated by the addition of bead/membranes and plates were incubated at room temperature for 12 hours (the first hour on a plate shaker), after which the amount of radioactivity present was determined using a Wallac plate counter. Ki values were determined by data analysis using appropriate software.

T1 sequence (P41968 whole entry): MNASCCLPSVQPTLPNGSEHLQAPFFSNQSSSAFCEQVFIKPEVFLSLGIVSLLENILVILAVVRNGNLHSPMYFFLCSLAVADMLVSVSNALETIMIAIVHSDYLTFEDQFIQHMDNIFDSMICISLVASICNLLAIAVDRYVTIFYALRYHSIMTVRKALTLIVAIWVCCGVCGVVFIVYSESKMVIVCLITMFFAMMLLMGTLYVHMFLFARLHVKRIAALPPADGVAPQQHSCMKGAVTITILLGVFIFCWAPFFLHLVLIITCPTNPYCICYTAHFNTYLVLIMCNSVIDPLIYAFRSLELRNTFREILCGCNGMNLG
T2 sequence (P32245 whole entry): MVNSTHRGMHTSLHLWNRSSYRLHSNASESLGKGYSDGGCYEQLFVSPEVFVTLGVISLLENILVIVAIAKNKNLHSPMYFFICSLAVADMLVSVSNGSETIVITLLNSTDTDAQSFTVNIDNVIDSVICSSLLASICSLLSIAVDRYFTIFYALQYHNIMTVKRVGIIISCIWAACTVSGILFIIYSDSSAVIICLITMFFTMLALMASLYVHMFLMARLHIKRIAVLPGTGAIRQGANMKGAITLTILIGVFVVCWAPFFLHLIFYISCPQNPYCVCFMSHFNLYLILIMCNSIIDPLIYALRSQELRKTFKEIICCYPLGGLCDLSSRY

| Structure (SMILES) | Ki [1] | Ki [2] | Ki [3] |
| --- | --- | --- | --- |
| C[C@@H]1CN(C(=O)[C@@H]2CN(c3ccc(=O)[nH]n3)C[C@H]2c2ccc(Cl)cn2)C[C@H](C)[C@@]1(O)c1ccccn1 [Example 28] | 1.67 µM | 0.516 µM | – |
| CC1CN(C(=O)C2CN(c3ccc(C#N)nn3)CC2c2ccc(F)cn2)CC(C)C1(O)c1ccccc1 (stereo not drawn) [Example 33] | – | 0.22 µM | – |
| CC1CN(C(=O)C2CN(c3ccc(=O)[nH]n3)CC2c2ccc(F)cn2)CC(C)C1(O)c1ccccc1 (stereo not drawn) [Example 37] | – | 0.422 µM | – |
| CC1CN(C(=O)C2CN(c3cncc(F)c3)CC2c2ccc(Cl)cn2)CC(C)C1(O)C1CC1 (stereo not drawn) [Example 24] | – | > 0.955 µM | – |
| CC1CN(C(=O)C2CN(c3ccc(=O)n(C)n3)CC2c2ccc(F)cn2)CC(C)C1(O)c1ccc(F)cc1 (stereo not drawn) [Example 40] | – | 0.43 µM | – |
| C[C@@H]1CN(C(=O)[C@@H]2CN(c3ccc(Cl)nn3)C[C@H]2c2ccc(F)cn2)C[C@H](C)[C@@]1(O)c1ccccc1 [Example 35] | – | 0.386 µM | – |
| C[C@@H]1CN(C(=O)[C@@H]2CN(c3ccc(=O)[nH]n3)C[C@H]2c2ccc(F)cn2)C[C@H](C)[C@@]1(O)c1ccc(Cl)cc1 [Example 6, 6-[(3S,4S)-3-{[(3R,4R,5S)-4-(4-chlorophenyl)-4-hydroxy-3,5-dimethylpiperidin-1-yl]carbonyl}-4-(5-fluoropyridin-2-yl)pyrrolidin-1-yl]pyridazin-3(2H)-one] | – | 0.456 µM | – |
| C[C@@H]1CN(C(=O)[C@@H]2CN(c3ccc(Cl)nn3)C[C@H]2c2ccc(F)cn2)C[C@H](C)[C@@]1(O)c1ccc(Cl)cc1 [Example 5, (3R,4R,5S)-4-(4-chlorophenyl)-1-{[(3S,4S)-1-(6-chloropyridazin-3-yl)-4-(5-fluoropyridin-2-yl)pyrrolidin-3-yl]carbonyl}-3,5-dimethylpiperidin-4-ol] | – | 0.552 µM | – |
| C[C@@H]1CN(C(=O)[C@@H]2CN(c3cccnn3)C[C@H]2c2ccc(Cl)cn2)C[C@H](C)[C@@]1(O)c1ccccn1 [Example 9, (3R,4R,5S)-1-{[(3S,4S)-4-(5-chloropyridin-2-yl)-1-pyridazin-3-ylpyrrolidin-3-yl]carbonyl}-3,5-dimethyl-4-pyridin-2-ylpiperidin-4-ol] | – | 0.523 µM | – |
| C[C@@H]1CN(C(=O)[C@@H]2CN(c3ccc(=O)n(C)n3)C[C@H]2c2ccc(F)cn2)C[C@H](C)[C@@]1(O)c1ccc(Cl)cc1 [Example 7, 6-[(3S,4S)-3-{[(3R,4R,5S)-4-(4-chlorophenyl)-4-hydroxy-3,5-dimethylpiperidin-1-yl]carbonyl}-4-(5-fluoropyridin-2-yl)pyrrolidin-1-yl]-2-methylpyridazin-3(2H)-one] | – | 0.714 µM | – |
| C[C@@H]1CN(C(=O)[C@@H]2CN(c3ccc(C#N)nn3)C[C@H]2c2ccc(C#N)cn2)C[C@H](C)[C@@]1(O)c1ccc(F)cc1 [Example 46] | 0.551 µM | 0.134 µM | – |
| CC1CN(C(=O)C2CN(c3ccc(=O)n(C)n3)CC2c2ccc(Cl)cn2)CC(C)C1(O)c1ccc(Cl)cc1 (stereo not drawn) [Example 23] | 0.264 µM | 0.079 µM | 0.0657 µM |
| C[C@@H]1CN(C(=O)[C@@H]2CN(c3ccc(C#N)cn3)C[C@H]2c2ccc(Cl)cn2)C[C@H](C)[C@@]1(O)c1ccc(F)cc1 [Example 1, 6-[(3S,4S)-3-(5-Chloropyridin-2-yl)-4-{[(3R,4R,5S)-4-(4-fluorophenyl)-4-hydroxy-3,5-dimethylpiperidin-1-yl]carbonyl}pyrrolidin-1-yl]nicotinonitrile] | – | 0.039 µM | – |
| COc1ccc(N2CC(C(=O)N3CC(C)C(O)(C4CC4)C(C)C3)C(c3ccc(Cl)cn3)C2)nn1 (stereo not drawn) [Example 26] | – | 0.363 µM | – |
| C[C@@H]1CN(C(=O)[C@@H]2CN(c3ccc(C#N)nn3)C[C@H]2c2ccc(F)cn2)C[C@H](C)[C@@]1(O)c1ccc(Cl)cc1 [Example 32] | 0.456 µM | 0.16 µM | 0.15 µM |
| COc1ccc(N2C[C@@H](C(=O)N3C[C@@H](C)[C@](O)(c4ccc(F)cc4)[C@@H](C)C3)[C@H](c3ccc(Cl)cn3)C2)nn1 [Example 4, (3R,4R,5S)-1-{[(3S,4S)-4-(5-chloropyridin-2-yl)-1-(6-methoxypyridazin-3-yl)pyrrolidin-3-yl]carbonyl}-4-(4-fluorophenyl)-3,5-dimethylpiperidin-4-ol] | – | 0.051 µM | – |
| COc1ccc([C@@H]2CN(c3ccc(C#N)nn3)C[C@H]2C(=O)N2C[C@@H](C)[C@](O)(c3ccc(F)cc3)[C@@H](C)C2)nc1 [Example 43] | – | 0.248 µM | – |
| C[C@@H]1CN(C(=O)[C@@H]2CN(c3cncc(F)c3)C[C@H]2c2ccc(Cl)cn2)C[C@H](C)[C@@]1(O)c1ccccn1 [Example 8, (3R,4R,5S)-1-{[(3S,4S)-4-(5-chloropyridin-2-yl)-1-(5-fluoropyridin-3-yl)pyrrolidin-3-yl]carbonyl}-3,5-dimethyl-4-pyridin-2-ylpiperidin-4-ol] | – | 0.643 µM | – |
| CC1CN(C(=O)C2CN(c3ccc(=O)n(C)n3)CC2c2ccc(Cl)cn2)CC(C)C1(O)c1ccccc1 (stereo not drawn) [Example 21] | – | 0.066 µM | – |
| CC1CN(C(=O)C2CN(c3ccc(C#N)nn3)CC2c2ccc(Cl)cn2)CC(C)C1(O)c1ccccn1 (stereo not drawn) [Example 30] | – | 0.112 µM | – |
| COc1ccc([C@@H]2CN(c3ccc(=O)[nH]n3)C[C@H]2C(=O)N2C[C@@H](C)[C@](O)(c3ccc(Cl)cn3)[C@@H](C)C2)nc1 [Example 41] | – | 3.75 µM | – |
| COc1ccc(C2CN(c3ccc(=O)[nH]n3)CC2C(=O)N2CC(C)C(O)(c3ccc(F)cc3)C(C)C2)nc1 (stereo not drawn) [Example 42] | – | 0.888 µM | – |
| C[C@@H]1CN(C(=O)[C@@H]2CN(c3ccc(Cl)nn3)C[C@H]2c2ccc(Cl)cn2)C[C@H](C)[C@@]1(O)c1ccccn1 [Example 31] | – | 0.526 µM | – |
| CC1CN(C(=O)C2CN(c3ccc(C#N)cn3)CC2c2ccc(C#N)cn2)CC(C)C1(O)c1ccc(F)cc1 (stereo not drawn) [Example 45] | – | 0.251 µM | – |
| CC1CN(C(=O)C2CN(c3ccc(=O)[nH]n3)CC2c2ccc(Cl)cn2)CC(C)C1(O)c1ccccc1 (stereo not drawn) [Example 27] | – | 0.1 µM | – |
| CC1CN(C(=O)C2CN(c3ccc(=O)n(C)n3)CC2c2ccc(F)cn2)CC(C)C1(O)c1ccccc1 (stereo not drawn) [Example 39] | – | 0.751 µM | – |
| C[C@@H]1CN(C(=O)[C@@H]2CN(c3ccc(=O)n(C)n3)C[C@H]2c2ccc(Cl)cn2)C[C@H](C)[C@@]1(O)C1CC1 [Example 18] | – | 0.965 µM | – |
| C[C@@H]1CN(C(=O)[C@@H]2CN(c3ccc(=O)n(C)n3)C[C@H]2c2ccc(Cl)cn2)C[C@H](C)[C@@]1(O)c1ccccn1 [Example 22] | 5.56 µM | 5.96 µM | – |
| COc1ccc(C2CN(c3ccc(C#N)nn3)CC2C(=O)N2CC(C)C(O)(c3ccc(F)cc3)C(C)C2)cn1 (stereo not drawn) [Example 16] | – | 0.251 µM | – |
